Laboratory results taken from US9751851B2, “Molecules and compositions that inhibit gram negative bacteria and their uses” (THE TRUSTEES OF PRINCETON UNIVERSITY, priority 2013, dated 2017).

Tests used:
Type in all cases: cell-based
[1] = tested on: wild-type P. aeruginosa PA14; assay: microbe, parasite or virus in culture; details: for Efficacy (%): Table 3, reduction of pyocyanin vs WT P. aeruginosa PA14: 0% = WT level, 100% = background medium
Method in brief: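 PA14 cultures diluted 1:1000, grown aerobically 17 h at 37° C with shaking with compound at 100 μM (end point) or 200 nM–200 μM (titration). Pyocyanin in filtered cell-free fluid read at 695 nm; efficacy 0% at WT level, 100% at medium background; IC50 from variable-slope sigmoidal fit.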

[2] = tested on: wild-type P. aeruginosa PA14; assay: Microarray gene expression analysis, wild-type strain; details: WT P. aeruginosa PA14, 100 μM
Protocol: Methods. Overnight P. aeruginosa PA14 cultures were back-diluted 1:1000 into 5 mL of fresh LB. 100 μM mBTL, or an equivalent amount of DMSO, was added to cultures which were grown aerobically with shaking at 37° C. for 17 hr. 9 ODs of cells were harvested for each treatment. Lysozyme (1 mg/mL in TE buffer) (Sigma) was added for 10 min at room temperature. Total RNA was prepared using the RNeasy Midi Kit (Qiagen). RNA was treated with RNase-Free DNaseI (Ambion) for 1 hr at 37° C., inactivated using DNaseI Inactivation Reagent Resin (Ambion), and re-purified using the RNeasy Mini Kit. […] The library was purified using the PCR Purification kit (Qiagen) and assessed for Cy3 and Cy5 incorporation using a Nanodrop ND-1000 Spectrophotometer (Nanodrop Technologies). […] Microarrays were scanned using an Agilent G2505C scanner and analyzed using Agilent Feature Extract software version 9.5. Resulting microarray intensity data were submitted to the PUMA Database (http://puma.princeton.edu) for archiving and analyzed using Matlab R2013a.
Overnight P. aeruginosa PA14 cultures were back-diluted 1:1000 into 5 mL of fresh LB. […] The library was purified using the PCR Purification kit (Qiagen) and assessed for Cy3 and Cy5 incorporation using a Nanodrop ND-1000 Spectrophotometer (Nanodrop Technologies). […]

[3] = tested on: ΔlasRrhlR strain of P. aeruginosa; assay: Pyocyanin production in mutant lacking LasR and RhlR; details: treated vs DMSO
Protocol: Methods. The oxidized form of pyocyanin imparts a green color to P. aeruginosa cultures, making the production of pyocyanin convenient to monitor by UV/Vis absorbance. Overnight P. aeruginosa cultures were subcultured into 5 mL fresh medium at 1:1000 dilution. Synthetic compounds were assayed at 100 μM for end point assays and at concentrations ranging from 200 nM to 200 μM for titrations following 17 hr of aerobic growth with shaking at 37° C. Cells were separated from culture fluids via centrifugation at 13,000 rpm for 15 min. Culture fluids were passed through 0.22 μm syringe driven filters (Millipore). Cell-free culture fluids were analyzed for pyocyanin using wavelength scans on a Beckman Coulter DU-800 spectrophotometer from 200 nm to 800 nm 695 nm was chosen for graphical representation. Titration data were fit with a variable-slope sigmoidal dose-response curve using GraphPad Prism to determine the IC50 values.
The compounds were designed to be AHL analogs that bind and antagonize LasR and/or RhlR. If either receptor were the target, a ΔlasRrhlR strain of P. aeruginosa would not be expected to have a further reduction of pyocyanin when treated with an inhibitor.

O=C(COc1cccc(Br)c1)Nc1ccnc(C(F)(F)F)c1 [compound 16, 4-amino-2-trifluoromethylpyridine-C6-3-bromophenoxyhybrid]
Efficacy (%) ([1]; listed as Table 3 entry 18): 99%
Efficacy (%) ([1]; listed as drawing 76): 99 ± 0.3%
inhibition of pyocyanin production (in words) ([1]; wild-type P. aeruginosa PA14, end point assays at 100 μM): highly effective at blocking pyocyanin production
effect on pyocyanin biosynthetic genes (microarray) [2]: none of the pyocyanin biosynthetic genes are impacted
pyocyanin levels in strain lacking LasR and RhlR [3]: pyocyanin levels are further reduced
